Source: US10688099B2, “Methods for modulating the amount of RNA transcripts” (PTC Therapeutics, Inc., priority 2013, dated 2020)

Tested on: RNA isoforms in PNN 1-46 SMA type I patient-derived fibroblasts
Experiment: RNA Abundance Modulation (RNA isoform abundance, iFPM, HiSeq RNA sequencing)
Type: cell-based, human
Conditions: 3 μM
Method: Cells from a cell line of interest are cultured in conditions sufficient to yield the number of cells capable of generating enough RNA for subsequent sequencing steps. Cells from the tested cell line are contacted with a compound described herein.
To culture said cells, they are seeded, at appropriate concentrations in a volume of media in a cell culture container and incubated for 4, 5, 6, 7, 8, 9, 10, or more hours. A concentrated solution of compound in a vehicle (e.g., DMSO) is then added in sufficient volume to result in the intended final concentration of the compound, for example 100 nM, 500 nM, 1 μM, 5 μM, 10 μM, 15 μM, 20 μM, or more. The cells may also be treated with vehicle alone, as a control. A number of replicates of each concentration or control may be made (e.g., 2 replicates). The cells are then incubated at a constant temperature appropriate for cell culture of the particular cell line (e.g., 37° C.) for 6, 12, 18, 24, 48, or more hours. After incubation, the growth medium is removed and the cells are washed with the appropriate buffer (e.g., PBS). Cells are then removed from adherence to the cell culture container by treatment with a solution containing trypsin, and the trypsin subsequently quenched with the appropriate volume of buffer (e.g., DMEM-FBS). The cells are then pelleted with gentle centrifugation (e.g., ≤90×g centrifugal force) and resuspended in a buffer to lyse the cells for extraction of RNA. The cell lysates may then be frozen (e.g., at −80° C.) or, alternately, may immediately be used in a procedure to purify the RNA (e.g. by use of the RNEASY PLUS® minikit). The RNA from cell lysates is eluted in the appropriate volume of buffer (e.g., RNEASE-FREE H2O®). The resulting purified RNA may then be sequenced (e.g., using RNASeq) or analyzed using a human exon array (e.g., by GENECHIP® human exon array) to determine changes in the RNA levels in those cells treated with compound compared to those cells treated only with DMSO. The purified RNA may also be quantified by other methods known in the art.
Using the RNA data obtained from sequencing, exon array, or other methods, a statistical analysis can reveal changes in the RNA levels of compound-treated compared with control. For example, t-test p-values may be calculated for the data obtained through sequencing and exon array methods in order to compare compound-treated cells to those treated with the DMSO control. […] Analysis of the sequencing and exon array data may then also yield predictions about the cause of the aberrant amount of an RNA transcript in the cells (e.g., perturbation of RNA splicing, RNA transcription, or RNA stability). These predictions may be further confirmed by methods known in the art. For example, RT-PCR and RT-qPCR may be used to confirm the change in amount of RNA transcripts for one or more particular transcripts of interest.
Following the methods described above in Example 1, PNN 1-46 SMA type I patient-derived fibroblasts were treated with 300 nM or 3 μM Compounds 774 and 808 in 0.5% DMSO.
700,000 cells were seeded in 10 mL of medium (DMEM plus 10% FBS) in a T-75 flask. Cells were allowed to attach for at least 4 hrs, after which 50 μL of a 200× compound solution (100% DMSO) was added to each well, and the plate was incubated at 37° C. for 24 hrs.
At the end of the incubation period, the supernatant was removed and the cells where washed with PBS. TrypLE (Invitrogen) express solution was added (e.g. 1.5 mL per one T75 flask). The flasks were incubated for 3 to 5 min at 37° C. The trypsin was then quenched, e.g., by adding 10 mL DMEM-FBS.
Next, the cells were pelleted using gentle centrifugation without exceeding 90×g centrifugal force. The supernatant was removed and the cell pellet was re-suspended in 600 μL RLT buffer (the RLT buffer was supplemented with beta-mercaptoethanol according to the RNeasy protocol manual) by pipetting up and down until the pellet was completely dissolved […]

SMILES: CCc1nc(C)cn2nc(-c3cc(=O)n4cc(C5CCN(C)CC5)cc(C)c4n3)cc12 [Compound 774]
- amp FC (x + 1) (TOMM5 CR627326): 2.36
- ave Cpd (TOMM5 CR627326): 4 iFPM
- FC (x + 1) (TOMM5 NM_001001790): 0.3953
- L2FC (x + 1) (TOMM5 NM_001001790): −1.339
- L2abs (Cpd-DMSO) (TOMM5 NM_001001790): 10.21
- abs (Cpd-DMSO) (TOMM5 NM_001001790): 1185 iFPM
- amp FC (x + 1) (TOMM5 NM_001001790): 2.53
- ave Cpd (TOMM5 NM_001001790): 774 iFPM
- FC (x + 1) (TOMM5 NM_001134484): 0.2630
- L2FC (x + 1) (TOMM5 NM_001134484): −1.927
- L2abs (Cpd-DMSO) (TOMM5 NM_001134484): 3.41
- abs (Cpd-DMSO) (TOMM5 NM_001134484): 11 iFPM
- amp FC (x + 1) (TOMM5 NM_001134484): 3.80
- ave Cpd (TOMM5 NM_001134484): 3 iFPM
- FC (x + 1) (TOMM5 NM_001134485): 0.4705
- L2FC (x + 1) (TOMM5 NM_001134485): −1.088
- L2abs (Cpd-DMSO) (TOMM5 NM_001134485): 4.88
- abs (Cpd-DMSO) (TOMM5 NM_001134485): 29 iFPM
- amp FC (x + 1) (TOMM5 NM_001134485): 2.13
- ave Cpd (TOMM5 NM_001134485): 25 iFPM
- FC (x + 1) (TRAF3 NM_003300): 0.1622
- L2FC (x + 1) (TRAF3 NM_003300): −2.624
- L2abs (Cpd-DMSO) (TRAF3 NM_003300): 8.22
- abs (Cpd-DMSO) (TRAF3 NM_003300): 298 iFPM
- amp FC (x + 1) (TRAF3 NM_003300): 6.17
- ave Cpd (TRAF3 NM_003300): 57 iFPM
- FC (x + 1) (TRAF3 NM_145725): 0.7367
- L2FC (x + 1) (TRAF3 NM_145725): −0.441
- L2abs (Cpd-DMSO) (TRAF3 NM_145725): 8.08
- abs (Cpd-DMSO) (TRAF3 NM_145725): 271 iFPM
- amp FC (x + 1) (TRAF3 NM_145725): 1.36
- ave Cpd (TRAF3 NM_145725): 757 iFPM
- FC (x + 1) (TRAF3 NM_145726): 1.0000
- L2FC (x + 1) (TRAF3 NM_145726): 0.000
- L2abs (Cpd-DMSO) (TRAF3 NM_145726): 0
- abs (Cpd-DMSO) (TRAF3 NM_145726): 0 iFPM
- amp FC (x + 1) (TRAF3 NM_145726): 1.00
- ave Cpd (TRAF3 NM_145726): 0 iFPM
- FC (x + 1) (TRAF3 NM_001199427): 1.2405
- L2FC (x + 1) (TRAF3 NM_001199427): 0.311
- L2abs (Cpd-DMSO) (TRAF3 NM_001199427): 2.15
- abs (Cpd-DMSO) (TRAF3 NM_001199427): 4 iFPM
- amp FC (x + 1) (TRAF3 NM_001199427): 1.24
- ave Cpd (TRAF3 NM_001199427): 22 iFPM
- FC (x + 1) (TRAK1 AK295848): 1.1521
- L2FC (x + 1) (TRAK1 AK295848): 0.204
- L2abs (Cpd-DMSO) (TRAK1 AK295848): 6.64
- abs (Cpd-DMSO) (TRAK1 AK295848): 100 iFPM
- amp FC (x + 1) (TRAK1 AK295848): 1.15
- ave Cpd (TRAK1 AK295848): 755 iFPM
- FC (x + 1) (TRAK1 NM_014965): 0.0190
- L2FC (x + 1) (TRAK1 NM_014965): −5.718
- L2abs (Cpd-DMSO) (TRAK1 NM_014965): 5.69
- abs (Cpd-DMSO) (TRAK1 NM_014965): 52 iFPM
- amp FC (x + 1) (TRAK1 NM_014965): 52.63
- ave Cpd (TRAK1 NM_014965): 0 iFPM
- FC (x + 1) (TRAK1 NM_001042646): 0.6949
- L2FC (x + 1) (TRAK1 NM_001042646): −0.525
- L2abs (Cpd-DMSO) (TRAK1 NM_001042646): 7.09
- abs (Cpd-DMSO) (TRAK1 NM_001042646): 136 iFPM
- amp FC (x + 1) (TRAK1 NM_001042646): 1.44
- ave Cpd (TRAK1 NM_001042646): 309 iFPM
- FC (x + 1) (TRAK1 NM_001265608): 0.8894
- L2FC (x + 1) (TRAK1 NM_001265608): −0.169
- L2abs (Cpd-DMSO) (TRAK1 NM_001265608): 6.46
- abs (Cpd-DMSO) (TRAK1 NM_001265608): 88 iFPM
- amp FC (x + 1) (TRAK1 NM_001265608): 1.12
- ave Cpd (TRAK1 NM_001265608): 705 iFPM
- FC (x + 1) (TRAK1 NM_001265610): 0.6862
- L2FC (x + 1) (TRAK1 NM_001265610): −0.543
- L2abs (Cpd-DMSO) (TRAK1 NM_001265610): 3.13
- abs (Cpd-DMSO) (TRAK1 NM_001265610): 9 iFPM
- amp FC (x + 1) (TRAK1 NM_001265610): 1.46
- ave Cpd (TRAK1 NM_001265610): 18 iFPM
- FC (x + 1) (TRAPPC12 AK094181): 1.2209
